Experimental data published in patent publication US11802120B2, “Fused cyclic urea derivatives as CRHR2 antagonist” (RaQualia Pharma Inc., priority 2018, dated 2023).

target: T1, human CRHR2-alpha (Homo sapiens, UniProt Q13324); assay: cAMP functional assay for human CRHR2 (LANCE Ultra cAMP, TR-FRET); assay type: cell-based; details: CHO-K1 cells expressing human CRHR2-alpha, agonist human urocortin2 at EC80, cAMP; read-out: IC50 against CRHR2
T1 sequence (Q13324 1-411): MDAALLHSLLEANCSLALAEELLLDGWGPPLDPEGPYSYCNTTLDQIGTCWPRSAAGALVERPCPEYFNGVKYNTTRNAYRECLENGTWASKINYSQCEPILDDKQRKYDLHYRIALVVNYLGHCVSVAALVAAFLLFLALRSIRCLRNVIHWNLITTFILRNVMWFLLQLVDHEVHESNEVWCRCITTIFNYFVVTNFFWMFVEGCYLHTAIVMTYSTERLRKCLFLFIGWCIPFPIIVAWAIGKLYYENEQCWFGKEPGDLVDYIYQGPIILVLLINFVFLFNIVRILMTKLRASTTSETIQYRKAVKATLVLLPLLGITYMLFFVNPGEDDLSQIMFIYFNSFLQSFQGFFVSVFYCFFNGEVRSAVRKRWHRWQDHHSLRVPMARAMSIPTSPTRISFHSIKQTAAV
Summary of the method: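 CHO-K1 stable lines; 4,000 cells/well; compound 30 min, 25° C; EC80 agonist (human urocortin2 → CRHR2, CRF → CRHR1) 30 min, 25° C; buffer HBSS/0.1% BSA/0.5 mM IBMX/5 mM Hepes pH 7.4; Eu-cAMP tracer + ULight antibody 60 min; TR-FRET read; IC50 from % inhibition curves.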

SMILES	IC50
O=C(N[C@H]1CC[C@H](Cn2c(=O)n(-c3ccc(N[C@@H]4CCOC4)nc3)c3ccccc32)CC1)c1cc(Cl)cnc1C(F)(F)F [Example 300, 5-chloro-N-((1R,4r)-4-((2-oxo-3-(6-(((R)-tetrahydro-furan-3-yl)amino)pyridin-3-yl)-2,3-dihydro-1H-benzo [d]imidazol-1-yl)methyl)cyclohexyl)-2-(trifluoro-methyl)nicotinamide]	< 300 nM
CNc1ccc(-n2c(=O)n(C[C@H]3CC[C@H](NC(=O)c4cc(Cl)cnc4C)CC3)c3cc(F)ccc32)cn1 [Example 624, 5-chloro-N-((1r,4r)-4-((6-fluoro-3-(6-(methylamino)pyridin-3-yl)-2-oxo-2,3-dihydro-1H-benzo[d]imidazol-1-yl)methyl)cyclohexyl)-2-methylnicotinamide]	< 300 nM
COc1ccc(-n2c(=O)n(C[C@H]3CC[C@H](NC(=O)c4cc(Cl)cnc4C)CC3)c3ccccc32)c(C)n1 [Example 149, 5-chloro-N-((1r,4r)-4-((3-(6-methoxy-2-methylpyridin-3-yl)-2-oxo-2,3-dihydro-1H-benzo[d]imidazol-1-yl)methyl)cyclohexyl)-2-methylnicotinamide]	< 300 nM
Cc1ccc(-n2c(=O)n(C[C@H]3CC[C@H](NC(=O)c4cc(Cl)cnc4C(F)F)CC3)c3cccnc32)c(Cl)c1 [Example 452, 5-chloro-N-((1r,4r)-4-((3-(2-chloro-4-methylphenyl)-2-oxo-2,3-dihydro-1H-imidazo[4,5-b]pyridin-1-yl)methyl)cyclo-hexyl)-2-(difluoromethyl) nicotinamide]	< 300 nM
Cc1ncc(Cl)cc1C(=O)N[C@H]1CC[C@H](Cn2c(=O)n(-c3ccc(C(=O)Nc4cccnn4)nc3)c3ccccc32)CC1 [Example 175, 5-(3-(((1r,4r)-4-(5-chloro-2-methylnicotinamido)cyclo-hexyl)methyl)-2-oxo-2,3-dihydro-1H-benzo[d]imidazol-1-yl)-N-(pyridazin-3-yl) picolinamide]	< 300 nM
Cc1ncc(Cl)cc1C(=O)N[C@H]1CC[C@H](Cn2c(=O)n(-c3ccc(OCC(F)F)nc3)c3ccccc32)CC1 [Example 35, 5-chloro-N-((1r,4r)-4-((3-(6-(2,2-difluoroethoxy)pyridin-3-yl)-2-oxo-2,3-dihydro-1H-benzo[d]imidazol-1-yl)methyl)cyclohexyl)-2-methylnicotinamide]	< 300 nM
CN(C)c1ccc(-n2c(=O)n(C[C@H]3CC[C@H](NC(=O)c4cc(Cl)cnc4C(F)(F)F)CC3)c3ccccc32)cn1 [Example 333, 5-chloro-N-((1r,4r)-4-((3-(6-(dimethylamino)pyridin-3-yl)-2-oxo-2,3-dihydro-1H-benzo [d]imidazol-1-yl)methyl)cyclohexyl)-2-(trifluoromethyl) nicotinamide]	< 300 nM
Cc1ncc(Cl)cc1C(=O)N[C@H]1CC[C@H](Cn2c(=O)n(-c3ccc(NC4COC4)nc3)c3ccccc32)CC1 [Example 147, 5-chloro-2-methyl-N-((1r,4r)-4-((3-(6-(oxetan-3-ylamino)pyridin-3-yl)-2-oxo-2,3-dihydro-1H-benzo[d]imidazol-1-yl)methyl)cyclo-hexyl)nicotinamide]	< 300 nM
Cc1ncc(Cl)cc1C(=O)N[C@H]1CC[C@H](Cn2c(=O)n(-c3ccc4c(N)noc4c3)c3ccccc32)CC1 [Example 198, N-((1r,4r)-4-((3-(3-aminobenzo[d]isoxazol-6-yl)-2-oxo-2,3-dihydro-1H-benzo[d]imidazol-1-yl)methyl)cyclohexyl)-5-chloro-2-methylnicotinamide]	< 300 nM
Cc1ncc(Cl)cc1C(=O)N[C@H]1CC[C@H](Cn2c(=O)n(-c3cnc4cc[nH]c4c3)c3ccccc32)CC1 [Example 158, 5-chloro-2-methyl-N-((1r,4r)-4-((2-oxo-3-(1H-pyrrolo[3,2-b]pyridin-6-yl)-2,3-dihydro-1H-benzo[d]imidazol-1-yl)methyl)cyclohexyl)nicotinamide]	< 300 nM
